Test results reported in patent US20050032896A1, “Use of synthetic retinoic acid in form of 13-cis vitamin A for treatment of autism” (priority 2002, published 2005).

What was measured:
Type in all cases: in vivo, human
symptoms of autism = assay: Oral treatment of an autistic subject, observed symptoms of autism
From the text: The patient in the present example is a child, weighs approximately 60 pounds, and is characterized by the symptoms of deficiencies in short term memory, inadequate independent problem solving skills for their age, deficient spontaneous verbalizations, utterances of diminished length, infrequent request to interact with family members and friends, insufficient capacity to master the complexity of play schemes for their age, and a tendency toward abnormal emotional responses (i.e. laughing when someone is seriously hurt in a movie, not offering assistance to family members when hurt, and not laughing along with siblings while watching cartoons, but instead tensing and becoming overly excited).
The subject weighing approximately 60 pounds was given a dosage of synthetic retinoic acid in the form of 13-cis vitamin A in amounts from about […] to about 40 mg per 60 lbs of body weight per day. […] Improvements in lessening the symptoms associated with the autism disorder were noted as early as 10 days into the treatment, with solid gains noted by the 17th day into the treatment.
(§1) As an example, the improvements in relief or elimination of symptoms of autistic disorder after about 17 days of administering synthetic retinoic acid in the form of 13-cis vitamin A at dosage levels of from about 20 mg every other day to about 40 mg per day, auditory evoked potential (AEP) responses were given before administering the mentioned dosage and after administration of the dosage regimen.

synaptic activity = assay: Auditory evoked potential (AEP) responses before and after the dosage regimen; conditions: after the dosage regimen versus before
Description: as §1

[1] = Blood analysis for retinoic acid content after oral vitamin A palmitate, second study 1999 to 2000; conditions: autistic subject; oral 20 mg every other day for two weeks, then 40 mg per day up to 5 months
Description: In a second study conducted in a period from 1999 to 2000, the autistic subject was orally given retinoic acid in the form of […] in an amount of 20 mg every other day for two weeks, and thereafter the dosage was increased to 40 mg per day for a period up to 5 months. […] Although there are numerous cis-trans isomers of vitamin A, there is no possibility for cis-trans isomerism about the cyclohexane double bond because the ring contains only 6 atoms. There are four carbon-carbon double bonds in the chain of atoms attached to the substituted cyclohexane ring, and each has the potential for cis-trans isomerism. Therefore, there are 2×2×2×2, or 16, possible cis-trans isomers for vitamin A. [drawing 1]

[2] = Blood analysis for retinoic acid content after oral vitamin A palmitate, first vitamin A study 1996; conditions: autistic subject; vitamin A palmitate day 1=0, day 2=25,000 IU, day 3 through day 7=50,000 IU
Description: In the first vitamin A study in 1996, a sample of the autistic subjects blood was analyzed for retinoic acid content on the belief that there was a deficiency of retinoic acid. At this time, the subject had been receiving up to about 50,000 IU dose of vitamin A palmitate, wherein day 1=0, day 2=25,000 IU and day 3 through day 7=50,000 IU. The RDA is 5,000 IU per day.

[3] = 20 mg every other day for two weeks, then 40 mg per day, oral
[4] = autistic subject, oral dosage regimen

In the case of `CC1=C(/C=C/C(C)=C/C=C/C(C)=C\C(=O)O)C(C)(C)CCC1`, the “time into treatment at which improvements in symptoms were first noted” value (symptoms of autism; [3]) is reported as 10 days, the “time into treatment at which solid gains were noted” value (symptoms of autism; [3]) is reported as no more than 17 days and the “language and cognitive functions” value (symptoms of autism; after the dosage regimen for between about 10 and 17 days) is reported as “noted improvement in language and cognitive functions”. For the same molecule, the “capability to master the complexity of play schemes” value (symptoms of autism; [4]) was “increase in the capability to master the complexity of play schemes”, the “frequency of request to interact with family members and friends” value (symptoms of autism; [4]) was “increase in the frequency of request to interact with family members and friends” and the “independent problem solving skills” value (symptoms of autism; [4]) was “improvement in independent problem solving skills”. For the same molecule, the length of utterances (symptoms of autism; [4]) was “increase in the length of utterances”, the short term memory (symptoms of autism; [4]) was “Improvement in short term memory” and the spontaneous verbalizations (symptoms of autism; [4]) was “increase in spontaneous verbalizations”. The “tendencies towards more normalized emotional responses” value (symptoms of autism; [4]) was “improvement in tendencies towards more normalized emotional responses”, the “optimal dose for lessening the symptoms of autism” value (symptoms of autism; for two weeks, thereafter increased to 40 mg per day, person, approx. 60 pounds, oral) was “about 20 mg per 60 lbs of body weight every other day” and the “synaptic activity recorded by audio evoked potentials (AEP)” value (synaptic activity) was “increase in synaptic activity”.

In the case of `CCCCCCCCCCCCCCCC(=O)OC/C=C(C)/C=C/C=C(C)/C=C/C1=C(C)CCCC1(C)C` [vitamin A palmitate], the “retinoic acid content in blood samples” value [1] is reported as “contained no retinoic acid” and the “retinoic acid content in blood” value [2] is reported as “no retinoic acid could be detected”.
